In the NIST ThermoML archive (doi:10.1016/j.jct.2012.09.017):
Numbers after ± are expanded uncertainties.

How the values were obtained:
[1] = 101.33 kPa, Liquid, Vibrating tube method
[2] = activity coefficient (dimensionless); of the first substance listed, at infinite dilution; xn = mol fraction of the nth substance listed; conditions: 101 kPa, Liquid, Chromatography, x1 = 0

activity coefficient ([2]; 318.15 K) | activity coefficient ([2]; 323.15 K) | activity coefficient ([2]; 333.15 K) | activity coefficient ([2]; 343.15 K) | activity coefficient ([2]; 353.15 K) | activity coefficient ([2]; 363.15 K) | activity coefficient ([2]; 373.15 K) | Compound | also measured
 |  |  |  |  |  |  | CCCC[N+]1(C)CCCC1.O=C1O[B-]2(OC1=O)OC(=O)C(=O)O2 [1-butyl-1-methylpyrrolidinium bis(oxalato)borate] | mass density ([1]; 328.15 K): 1235.34 ± 0.44 kg/m3; mass density ([1]; 333.15 K): 1231.29 ± 0.44 kg/m3; mass density ([1]; 338.15 K): 1227.23 ± 0.43 kg/m3; mass density ([1]; 343.15 K): 1223.19 ± 0.43 kg/m3; mass density ([1]; 348.15 K): 1219.17 ± 0.43 kg/m3; mass density ([1]; 353.15 K): 1215.17 ± 0.42 kg/m3
15.8 ± 0.8 | 15.4 ± 0.8 | 14.7 ± 0.8 | 14 ± 0.7 | 13.4 ± 0.7 |  |  | C=CCCCCCC [oct-1-ene] + CCCC[N+]1(C)CCCC1.N#C[B-](C#N)(C#N)C#N | 
 |  | 1.03 ± 0.05 | 1.04 ± 0.05 | 1.06 ± 0.05 | 1.08 ± 0.05 | 1.09 ± 0.05 | COC(C)=O [methyl ethanoate] + CCCC[N+]1(C)CCCC1.O=C1O[B-]2(OC1=O)OC(=O)C(=O)O2 | 
 |  | 1.13 ± 0.05 | 1.12 ± 0.05 | 1.12 ± 0.05 | 1.13 ± 0.05 | 1.13 ± 0.05 | c1ccsc1 [thiophene] + CCCC[N+]1(C)CCCC1.O=C1O[B-]2(OC1=O)OC(=O)C(=O)O2 | 
 |  | 0.745 ± 0.036 | 0.76 ± 0.037 | 0.774 ± 0.037 | 0.789 ± 0.037 | 0.803 ± 0.038 | ClCCl [dichloromethane] + CCCC[N+]1(C)CCCC1.O=C1O[B-]2(OC1=O)OC(=O)C(=O)O2 | 
2.39 ± 0.12 | 2.41 ± 0.12 | 2.45 ± 0.13 | 2.48 ± 0.13 | 2.52 ± 0.13 |  |  | COC(C)(C)C [2-methoxy-2-methylpropane] + CCCC[N+]1(C)CCCC1.N#C[B-](C#N)(C#N)C#N | 
 |  | 0.853 ± 0.039 | 0.861 ± 0.039 | 0.87 ± 0.04 | 0.877 ± 0.04 | 0.884 ± 0.04 | COC(=O)OC [dimethyl carbonate] + CCCC[N+]1(C)CCCC1.O=C1O[B-]2(OC1=O)OC(=O)C(=O)O2 | 
0.681 ± 0.034 | 0.688 ± 0.035 | 0.703 ± 0.035 | 0.718 ± 0.035 | 0.733 ± 0.036 |  |  | c1ccsc1 [thiophene] + CCCC[N+]1(C)CCCC1.N#C[B-](C#N)(C#N)C#N | 
 |  | 2.56 ± 0.13 | 2.3 ± 0.12 | 2.08 ± 0.11 | 1.9 ± 0.1 | 1.76 ± 0.09 | CCCO [propan-1-ol] + CCCC[N+]1(C)CCCC1.O=C1O[B-]2(OC1=O)OC(=O)C(=O)O2 | 
 |  | 1.16 ± 0.05 | 1.2 ± 0.06 | 1.23 ± 0.06 | 1.26 ± 0.06 | 1.29 ± 0.06 | COCCOC [1,2-dimethoxyethane] + CCCC[N+]1(C)CCCC1.O=C1O[B-]2(OC1=O)OC(=O)C(=O)O2 | 
0.425 ± 0.029 | 0.426 ± 0.029 | 0.427 ± 0.029 | 0.429 ± 0.029 | 0.43 ± 0.029 |  |  | CC#N [acetonitrile] + CCCC[N+]1(C)CCCC1.N#C[B-](C#N)(C#N)C#N | 
 |  | 41.4 ± 2.1 | 37.5 ± 1.9 | 34.3 ± 1.8 | 31.5 ± 1.6 | 29.3 ± 1.5 | C=CCCCCCC [oct-1-ene] + CCCC[N+]1(C)CCCC1.O=C1O[B-]2(OC1=O)OC(=O)C(=O)O2 | 
 |  | 1.27 ± 0.06 | 1.19 ± 0.05 | 1.11 ± 0.05 | 1.05 ± 0.05 | 0.99 ± 0.043 | CO [methanol] + CCCC[N+]1(C)CCCC1.O=C1O[B-]2(OC1=O)OC(=O)C(=O)O2 | 
 |  | 18.4 ± 1 | 17 ± 0.9 | 16 ± 0.8 | 15.1 ± 0.8 | 14.4 ± 0.7 | CC(C)OC(C)C [diisopropyl ether] + CCCC[N+]1(C)CCCC1.O=C1O[B-]2(OC1=O)OC(=O)C(=O)O2 | 
 |  | 30 ± 1.6 | 26.5 ± 1.4 | 24 ± 1.2 | 21.6 ± 1.1 | 19.9 ± 1 | CC1CCCCC1 [methylcyclohexane] + CCCC[N+]1(C)CCCC1.O=C1O[B-]2(OC1=O)OC(=O)C(=O)O2 | 
0.942 ± 0.042 | 0.949 ± 0.042 | 0.967 ± 0.043 | 0.982 ± 0.043 | 1 ± 0.04 |  |  | CCOC(C)=O [ethyl acetate] + CCCC[N+]1(C)CCCC1.N#C[B-](C#N)(C#N)C#N | 
 |  | 6.34 ± 0.33 | 6.06 ± 0.31 | 5.87 ± 0.3 | 5.7 ± 0.29 | 5.57 ± 0.29 | COC(C)(C)C [2-methoxy-2-methylpropane] + CCCC[N+]1(C)CCCC1.O=C1O[B-]2(OC1=O)OC(=O)C(=O)O2 | 
 |  | 1.65 ± 0.08 | 1.63 ± 0.08 | 1.61 ± 0.08 | 1.6 ± 0.08 | 1.59 ± 0.08 | c1ccccc1 [benzene] + CCCC[N+]1(C)CCCC1.O=C1O[B-]2(OC1=O)OC(=O)C(=O)O2 | 
 |  | 41.8 ± 2.2 | 36.9 ± 1.9 | 33 ± 1.7 | 29.7 ± 1.5 | 27 ± 1.4 | CCC1CCCCC1 [ethylcyclohexane] + CCCC[N+]1(C)CCCC1.O=C1O[B-]2(OC1=O)OC(=O)C(=O)O2 | 
1.32 ± 0.06 | 1.27 ± 0.06 | 1.17 ± 0.05 | 1.09 ± 0.05 | 1.02 ± 0.05 |  |  | CCO [ethanol] + CCCC[N+]1(C)CCCC1.N#C[B-](C#N)(C#N)C#N | 
 |  | 0.509 ± 0.031 | 0.512 ± 0.031 | 0.514 ± 0.031 | 0.516 ± 0.031 | 0.517 ± 0.031 | CC#N [acetonitrile] + CCCC[N+]1(C)CCCC1.O=C1O[B-]2(OC1=O)OC(=O)C(=O)O2 | 
8.51 ± 0.44 | 8.26 ± 0.43 | 7.83 ± 0.4 | 7.44 ± 0.38 | 7.11 ± 0.37 |  |  | C1CCCCC1 [cyclohexane] + CCCC[N+]1(C)CCCC1.N#C[B-](C#N)(C#N)C#N | 
0.522 ± 0.031 | 0.529 ± 0.031 | 0.543 ± 0.031 | 0.556 ± 0.032 | 0.57 ± 0.032 |  |  | COC(=O)OC [dimethyl carbonate] + CCCC[N+]1(C)CCCC1.N#C[B-](C#N)(C#N)C#N | 
1.53 ± 0.07 | 1.46 ± 0.07 | 1.34 ± 0.06 | 1.24 ± 0.06 | 1.15 ± 0.05 |  |  | CCCO [propan-1-ol] + CCCC[N+]1(C)CCCC1.N#C[B-](C#N)(C#N)C#N | 
 |  |  |  |  |  |  | CCCC[N+]1(C)CCCC1.N#C[B-](C#N)(C#N)C#N [1-butyl-1-methylpyrrolidinium tetracyanoborate] | mass density ([1]; 283.15 K): 986.48 ± 0.29 kg/m3; mass density ([1]; 293.15 K): 979.5 ± 0.29 kg/m3; mass density ([1]; 303.15 K): 972.59 ± 0.29 kg/m3; mass density ([1]; 313.15 K): 965.77 ± 0.29 kg/m3; mass density ([1]; 323.15 K): 959.04 ± 0.29 kg/m3; mass density ([1]; 333.15 K): 952.4 ± 0.29 kg/m3; mass density ([1]; 343.15 K): 945.83 ± 0.29 kg/m3
 |  | 3.97 ± 0.2 | 3.85 ± 0.2 | 3.74 ± 0.19 | 3.65 ± 0.19 | 3.56 ± 0.18 | CCc1ccccc1 [ethylbenzene] + CCCC[N+]1(C)CCCC1.O=C1O[B-]2(OC1=O)OC(=O)C(=O)O2 | 
1.65 ± 0.08 | 1.66 ± 0.08 | 1.68 ± 0.08 | 1.71 ± 0.09 | 1.73 ± 0.09 |  |  | CCc1ccccc1 [ethylbenzene] + CCCC[N+]1(C)CCCC1.N#C[B-](C#N)(C#N)C#N | 
5.87 ± 0.3 | 5.88 ± 0.3 | 5.86 ± 0.3 | 5.85 ± 0.3 | 5.84 ± 0.3 |  |  | CC(C)OC(C)C [diisopropyl ether] + CCCC[N+]1(C)CCCC1.N#C[B-](C#N)(C#N)C#N | 

Compound | activity coefficient ([2]; 318.15 K) | activity coefficient ([2]; 323.15 K) | activity coefficient ([2]; 333.15 K) | activity coefficient ([2]; 343.15 K) | activity coefficient ([2]; 353.15 K) | activity coefficient ([2]; 363.15 K) | activity coefficient ([2]; 373.15 K) | also measured
Cc1ccccc1 [toluene] + CCCC[N+]1(C)CCCC1.N#C[B-](C#N)(C#N)C#N | 1.13 ± 0.05 | 1.15 ± 0.05 | 1.17 ± 0.05 | 1.19 ± 0.05 | 1.22 ± 0.06 |  |  | 
ClC(Cl)(Cl)Cl [tetrachloromethane] + CCCC[N+]1(C)CCCC1.N#C[B-](C#N)(C#N)C#N | 2.4 ± 0.12 | 2.41 ± 0.12 | 2.43 ± 0.12 | 2.45 ± 0.13 | 2.47 ± 0.13 |  |  | 
ClC(Cl)(Cl)Cl [tetrachloromethane] + CCCC[N+]1(C)CCCC1.O=C1O[B-]2(OC1=O)OC(=O)C(=O)O2 |  |  | 4.23 ± 0.22 | 4.14 ± 0.21 | 4.07 ± 0.21 | 4 ± 0.21 | 3.95 ± 0.2 | 
Cc1ccccc1 [toluene] + CCCC[N+]1(C)CCCC1.O=C1O[B-]2(OC1=O)OC(=O)C(=O)O2 |  |  | 2.57 ± 0.13 | 2.52 ± 0.13 | 2.47 ± 0.13 | 2.43 ± 0.12 | 2.4 ± 0.12 | 
CC(C)=O [acetone] + CCCC[N+]1(C)CCCC1.N#C[B-](C#N)(C#N)C#N | 0.445 ± 0.03 | 0.45 ± 0.03 | 0.461 ± 0.03 | 0.471 ± 0.03 | 0.481 ± 0.03 |  |  | 
CCC(C)=O [butanone] + CCCC[N+]1(C)CCCC1.O=C1O[B-]2(OC1=O)OC(=O)C(=O)O2 |  |  | 1.13 ± 0.05 | 1.12 ± 0.05 | 1.11 ± 0.05 | 1.11 ± 0.05 | 1.1 ± 0.05 | 
